Assay results as given in article PMC3257379 (Amino Acids, 2011).
Positions of bridges follow the written chain, without caps; N, C: chain ends. No end group written: not given here.

How the values were obtained:
[1] = test system: tumor-draining brachial LNs of 4T1 tumor-bearing BALB/C mice; test: Ex vivo optical; format: in vivo, mouse; conditions: day 21 after tumor inoculation; 0.8 nmol, 24 h post injection; no blocking; n = 3/group
MDA-MB-435 xenografts = conditions: systemic LyP-1 peptide treatment of xenografted tumor mice; ref Laakkonen et al. 2004; cited from earlier work

Row | Substance | Average signal of tumor-draining LNs [1] | Effect on tumor growth (MDA-MB-435 xenografts)
1 | Cy5.5 | 25.6 ± 0.25 ×10^3 photon/cm^2/s | 
2 | CGNKRTRGC (disulfide 1-9 (inferred)) [LyP-1] |  | inhibited tumor growth
